Read-outs that look alike come from different tables or passages of the source.

This is an account of results in patent US9440938B2, “Sulfonamide derivative having PGD2 receptor antagonistic activity” (SHIONOGI & CO., LTD., priority 2005, dated 2016).

The target of experiment [1] is T1, DP receptor (Homo sapiens, UniProt Q13258).
T1 construct: endogenous in cells; host or cells: washed platelets from peripheral blood of a healthy volunteer
T1 sequence (Q13258 1-359): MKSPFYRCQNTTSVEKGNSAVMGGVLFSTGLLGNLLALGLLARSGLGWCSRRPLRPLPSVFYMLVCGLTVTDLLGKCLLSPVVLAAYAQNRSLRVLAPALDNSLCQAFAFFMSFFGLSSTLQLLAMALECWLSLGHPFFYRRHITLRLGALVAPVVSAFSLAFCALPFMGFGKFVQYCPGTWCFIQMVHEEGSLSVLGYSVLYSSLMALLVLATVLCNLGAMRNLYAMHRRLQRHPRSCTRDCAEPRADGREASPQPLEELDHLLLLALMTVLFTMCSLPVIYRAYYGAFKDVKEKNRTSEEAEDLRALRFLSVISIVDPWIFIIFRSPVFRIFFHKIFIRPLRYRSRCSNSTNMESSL
Put plainly: cAMP assay with washed platelet (DP inhibitory activity in vitro). It is filed as cell-based. The conditions noted are these: read-out: IC50 (50% DP-inhibitory concentration in the cAMP assay); washed human platelets, 100 nM PGD2, cAMP by HTRF. How it is done: 1) Preparation of Platelet and a Method of cAMP Assay
30 mL of peripheral blood was collected from a healthy volunteer using a syringe containing one ninth amount of 3.8% sodium citrate. After being centrifuged at 180 g for 10 minutes at room temperature, a supernatant was collected and used as Platelet Rich Plasma (PRP). The resulting PRP was washed with wash buffer and centrifuged three times (Washed Platelet: WP) and platelets were counted by a microcell counter. WP was added to a plate in amount of 1.5×10^8/assay and the plate was treated with 3-isobutyl-1-methylxanthin (IBMX; 0.5 mM) for 5 minutes. A reaction was initiated by adding 100 nM of PGD2 5 min after an addition of a test compound. The reaction was terminated with an addition of 1N hydrochloric acid after 2 minutes and the cells were destructed using 12% triton X-100. An amount of cAMP in the supernatant was assayed by Homogeneous Trangient Fluorescence (HTRF)

Experiment [2] has as its target T1, DP receptor. Kind of experiment: Receptor binding assay, [3H]-PGD2, platelet membrane. The settings on record: [3H]-PGD2, human platelet membrane. How it is done:
2) Receptor Binding Assay
A prepared WP was homogenated and a membrane fraction was collected with high-speed centrifugation. A compound of the present invention or a reference compound A (No. IC-73 in WO 2003/097598) was added to the plate and [^3H]-PGD2 was also added. A platelet membrane, a protein concentration is 2 mg/mL, was added and mixed in the plate, and placed on ice for 2 hours. The reaction solution was transferred to a low protein-adsorptive filter and washed with a wash solution eight times using a cell harvester. After the final washing, water was removed sufficiently, and scintillator was added. DP inhibitory activity was investigated by measuring [^3H] by using Micro Beta.

The next experiment concerns OVA asthma model of rat. Put plainly: Test using OVA asthma model of rat (airway hyperresponsiveness, infiltration of inflammatory cells, mucus-secretion). Format: in vivo, Brown Norway (BN) Rats. The settings on record: po, 72 h. How it is done:
Test Using OVA Asthma Model of Rat
Brown Norway (BN) Rats were sensitized by i.p. administration of 0.1 mg/mL of ovalbumin (OVA) and 1 mg of aluminum hydroxide gel. A solution of 1% OVA was aerosolized by ultrasonic nebulizer (NE-U17) and the rats were subjected to inhalation exposure of the aerosol for 30 minutes in an exposing chamber 12, 19, 26 and 33 days after the sensitization. One hour before the 4th exposure of the antigen, compounds of the present invention were administered in a dose of 10 mg/kg p.o. once a day for three days consecutively. In a control group, 0.5% of methyl cellulose was administered in place of the compound of the present invention.
Under pentobarbital anesthesia (80 mg/kg, i.p.), acetylcholine (3.9, 7.8, 15.6, 31.3, 62.5, 125, 250 and 500 μg/kg) was injected to jugular vein of the rats successively from a lower dose at intervals of 5 minutes three days after the fourth exposure to the antigen, and immediate contractile reaction of airways (an increase of insufflation pressure) was measured by a modified method of Konnzett & Ririssler. Inhibition rate of airway hyperresponsiveness against the control group was calculated based on area under the curve (AUC) obtained from concentration-response curve of acetylcholine.
After the measurement of increased hyperresponsive airway was completed, bronchoalveoli of the rats were washed with 5 mL of saline three times. Total cell number in the washings was counted by a hemacytometer under light microscope, and inhibition rates of infiltration of inflammatory cells against the control group were calculated. Further, mucin in the airway lavage fluid was measured by ELISA method using jacalin, a mucin-binding lectin, and the inhibition rates of mucus-secretion against the control group were calculated.

`CC(C)Oc1ccc(S(=O)(=O)N2CCC(Oc3ccccc3/C=C/C(=O)O)CC2)cc1` [Compound I-7]: the IC50 at DP receptor [1] was 2.4 µM.
The same measure, in the same setting: to `COc1cccc(OC2CCN(S(=O)(=O)c3ccc(OC(C)C)cc3)CC2)c1/C=C/C(=O)O` [Compound I-8] belongs 2.1 µM.
As for `CC(C)Oc1ccc(S(=O)(=O)N2CCC(Oc3ccc(Cl)cc3CCC(=O)O)CC2)cc1` [Compound I-10], on DP receptor [1], the IC50 turned out to be 2.7 µM. The compound further came in with a Ki on DP receptor [2] of 30 µM.
For `CC(C)Oc1ccc(S(=O)(=O)N2CCC(Oc3ccccc3CCC(=O)O)CC2)cc1` [Compound I-11], on DP receptor [1], the IC50 worked out at 3 µM.
On the same count and under the same terms, to `COc1cccc(OC2CCN(S(=O)(=O)c3ccc(OC(C)C)cc3)CC2)c1CCC(=O)O` [Compound I-12] belongs 4.2 µM.
The same measure, in the same setting: in the case of `CC(C)Oc1ccc(S(=O)(=O)N2CCC(Oc3ccc(F)cc3CCC(=O)O)CC2)cc1` [Compound I-18] it was 1.6 µM; in that of `CC(C)Oc1ccc(S(=O)(=O)N2CC=C(c3ccc(Cl)c(OCC(=O)O)c3)CC2)cc1` [Compound I-30], 0.51 µM.
On to `CC(C)Oc1ccc(S(=O)(=O)N2CCC(c3ccc(Cl)c(OCC(=O)O)c3)CC2)cc1` [Compound I-31], for which the IC50 on DP receptor [1] came to 0.16 µM. The compound further yielded an inhibition constant (Ki) on DP receptor [2] of 3.6 µM.
Take `Cc1ccc(N2CCN(S(=O)(=O)c3ccc(OC(C)C)cc3)CC2)cc1OCC(=O)O` [II-8]: the IC50 at DP receptor [1] amounted to 4.6 µM.
With `CC(C)Oc1ccc(S(=O)(=O)N2CCN(c3ccc(Cl)c(OCC(=O)O)c3)CC2)cc1` [II-10], the IC50 at DP receptor [1] was determined as 0.41 µM. Besides, affinity on DP receptor [2] was put at a Ki of 0.65 µM.
For the compound `CC(C)Oc1ccc(S(=O)(=O)N2CCN(c3cccc(OCC(=O)O)n3)CC2)cc1` [II-11], the IC50 on DP receptor [1] was 2.3 µM.
The same measure, in the same setting: to `CC(C)Oc1ccc(S(=O)(=O)N2CCN(c3ccc(Cl)c(/C=C/C(=O)O)c3)CC2)cc1` [II-18] belongs 4.9 µM.
On to `CC(C)Oc1ccc(S(=O)(=O)N2CCN(c3ccc(Cl)c(CC(=O)O)c3)CC2)cc1` [II-20], for which, on DP receptor [1], the IC50 worked out at 4.3 µM.
Turning to `CC(C)Oc1ccc(S(=O)(=O)N2CCN(c3cc(F)cc(OCC(=O)O)c3)CC2)cc1` [II-25], the IC50 at DP receptor [1] is 0.67 µM. On DP receptor [2], this compound had a Ki of 1.6 µM.
The like results for `CC(C)Oc1ccc(S(=O)(=O)N2CCN(c3ccc(NC(=O)c4ccccc4)c(OCC(=O)O)c3)CC2)cc1` [II-28] were, in that order, 2.5 µM and 3.8 µM.
The corresponding values for `CC(C)Oc1ccc(S(=O)(=O)N2CCN(c3ccc(Cl)c(OCC(=O)O)c3)CC2)cc1F` [II-31] are 0.81 µM and 3.7 µM.
`COCC#Cc1cc(OCC(=O)O)cc(N2CCN(S(=O)(=O)c3ccc(OC(C)C)cc3)CC2)c1` [II-37]: at DP receptor [1], the IC50 came to 1.5 µM.
Turning to `Cc1cc(OCC(=O)O)cc(N2CCN(S(=O)(=O)c3ccc(OC(C)C)cc3)CC2)c1` [II-41], at DP receptor [1], the IC50 worked out at 3.5 µM.
Consider `CC(C)Oc1ccc(S(=O)(=O)N2CCN(c3ccc(Cl)c(OCC(=O)O)c3)C(C)C2)cc1` (stereo not shown) [II-44], for which the IC50 at DP receptor [1] turned out to be 0.69 µM. In addition, on DP receptor [2], the affinity, expressed as Ki, was 1.6 µM.
The corresponding values for `CC(C)Oc1ccc(S(=O)(=O)N2CCN(c3ccc(-c4nnco4)c(OCC(=O)O)c3)CC2)cc1` [II-46] are 0.79 µM and 0.87 µM.
On to `CC(C)Oc1ccc(S(=O)(=O)N2CCN(c3ccc(NC(=O)c4ccccn4)c(OCC(=O)O)c3)CC2)cc1` [II-47], for which the IC50 on DP receptor [1] came to 3.1 µM. Moreover, at DP receptor [2], the Ki was 2.2 µM.
In the case of `CC(C)Oc1ccc(S(=O)(=O)N2CCN(c3ccc(NC(=O)c4cccnc4)c(OCC(=O)O)c3)CC2)cc1` [II-48], the IC50 on DP receptor [1] was determined as 4.6 µM.
For the compound `CC(C)Oc1ccc(S(=O)(=O)N2CCN(c3cc(OCC(=O)O)cc(-c4cccs4)c3)CC2)cc1` [II-51], the IC50 at DP receptor [1] worked out at 0.64 µM. For the same compound, the inhibition constant (Ki) on DP receptor [2] amounted to 0.52 µM.
As for `CC(C)Oc1ccc(S(=O)(=O)N2CCN(c3ccc(-c4ccccc4)c(OCC(=O)O)c3)CC2)cc1` [II-53], the IC50 on DP receptor [1] was determined as 2.3 µM.
As to `CC(C)Oc1ccc(S(=O)(=O)N2CCN(c3cc(F)c(F)c(OCC(=O)O)c3)CC2)cn1` [II-55], on DP receptor [1], the IC50 is 3 µM.
Same read-out and setting: to `CC(C)Oc1ccc(S(=O)(=O)N2CCN(c3cc(OCC(=O)O)cc(-c4ccccc4)c3)CC2)cc1` [II-57] belongs 1.2 µM; to `CC(C)Oc1ccc(S(=O)(=O)N2CCN(c3ccc(NC(=O)c4ccno4)c(OCC(=O)O)c3)CC2)cc1` [II-58], 3.5 µM.
On the same count and under the same terms, to `COC(=O)Nc1ccc(N2CCN(S(=O)(=O)c3ccc(OC(C)C)cc3)CC2)cc1OCC(=O)O` [II-59] belongs 4.3 µM.
As to `Cc1cc(C(=O)Nc2ccc(N3CCN(S(=O)(=O)c4ccc(OC(C)C)cc4)CC3)cc2OCC(=O)O)no1` [II-60], the IC50 on DP receptor [1] came out at 0.88 µM. This compound yielded an inhibitory constant (Ki) on DP receptor [2] of 2.6 µM.
The corresponding values for `Cc1nnc(-c2ccc(N3CCN(S(=O)(=O)c4ccc(OC(C)C)cc4)CC3)cc2OCC(=O)O)o1` [II-61] are 2.1 µM and 1.4 µM.
For the compound `CC(C)Oc1ccc(S(=O)(=O)N2CCN(c3ccc(C(=O)Nc4ccccc4)c(OCC(=O)O)c3)CC2)cc1` [II-62], the IC50 on DP receptor [1] is 1.1 µM. Further, the Ki on DP receptor [2] stood at 4.7 µM.
Consider `CC(C)NC(=O)c1ccc(N2CCN(S(=O)(=O)c3ccc(OC(C)C)cc3)CC2)cc1OCC(=O)O` [II-63], for which the inhibition in vivo at 10 mg/kg stood at 79% in the experiment with OVA asthma model of rat (BN rats, 10 mg/kg p.o. once a day for three days, mucin in airway lavage fluid by ELISA against control group, read-out: inhibition rate (%) mucus-secretion); 59% in the experiment on OVA asthma model of rat (BN rats, 10 mg/kg p.o. once a day for three days, total cell number in bronchoalveolar washings against control group, read-out: inhibition rate (%) infiltration of inflammatory cells); 41% in the experiment with OVA asthma model of rat (read-out: inhibition rate (%) airway hyperresponsiveness).
With `CC(C)Oc1ccc(S(=O)(=O)N2CCN(c3ccc(-c4ccco4)c(OCC(=O)O)c3)CC2)cc1` [II-65], the IC50 at DP receptor [1] worked out at 0.14 µM. Besides, the affinity on DP receptor [2] corresponds to a Ki of 16 µM.
Take `CC(C)OC(=O)Nc1ccc(N2CCN(S(=O)(=O)c3ccc(OC(C)C)cc3)CC2)cc1OCC(=O)O` [II-67]: on DP receptor [1], the IC50 was 1.7 µM.
Still for that read-out and setting: in the case of `CC(C)NC(=O)Nc1ccc(N2CCN(S(=O)(=O)c3ccc(OC(C)C)cc3)CC2)cc1OCC(=O)O` [II-68] it was 17 µM.
On the same count and under the same terms, to `CC(C)Oc1ccc(S(=O)(=O)N2CCN(c3cc(OCC(=O)O)ccc3Cl)CC2)cc1` [II-69] belongs 1.4 µM.
On the same count and under the same terms, in the case of `CC(C)Oc1ccc(S(=O)(=O)N2CCN(c3ccc(OCc4ccccc4)c(OCC(=O)O)c3)CC2)cc1` [II-71] it was 4.1 µM.
Turning to `Cc1cnc(-c2ccc(N3CCN(S(=O)(=O)c4ccc(OC(C)C)cc4)CC3)cc2OCC(=O)O)o1` [II-73], the IC50 at DP receptor [1] stood at 1 µM. At DP receptor [2], this compound came in with an inhibitory constant (Ki) of 1.1 µM.
The like results for `CC(C)Oc1ccc(S(=O)(=O)N2CCN(c3ccc(-c4ncco4)c(OCC(=O)O)c3)CC2)cc1` [II-74] were, in that order, 0.52 µM and 0.24 µM.
Consider `CC(C)Oc1ccc(S(=O)(=O)N2CCN(c3ccc(OCc4ccoc4)c(OCC(=O)O)c3)CC2)cc1` [II-77], for which the IC50 on DP receptor [1] was determined as 3.6 µM.
On to `CC(C)Oc1ccc(S(=O)(=O)N2CCN(c3ccc(Oc4ccccc4)c(OCC(=O)O)c3)CC2)cc1` [II-79], for which the IC50 at DP receptor [1] is 2.3 µM.
On the same count and under the same terms, in the case of `CC(C)Oc1ccc(S(=O)(=O)N2CCN(c3ccc(Br)c(OCC(=O)O)n3)CC2)cc1` [II-90] it was 0.59 µM; in that of `CC(=O)c1ccc(N2CCN(S(=O)(=O)c3ccc(OC(C)C)cc3)CC2)cc1OCC(=O)O` [II-91], 1.3 µM.
